ChEMBL document CHEMBL3862024, “2-Phenylbenzo[b]furans: Synthesis and promoting activity on estrogen biosynthesis” (Bioorg Med Chem Lett, 2016)

Experiments:
[1] = Induction of estrogen biosynthesis in aromatase overexpressing HEK293A cells assessed as increase in 17beta-estradiol levels at 50 uM preincubated for 24 hrs followed by testosterone addition measured after 24 hrs by magnetic particle-based ELISA relative to egonol gentiobioside; assay type: functional, Homo sapiens, HEK293-A
[2] = Cytotoxicity against aromatase overexpressing HEK293A cells assessed as effect on cell proliferation at 10 to 50 uM; assay type: toxicity, cell-based; conditions: human, hek293-a
[3] = Induction of estrogen biosynthesis in aromatase overexpressing HEK293A cells assessed as increase in 17beta-estradiol levels preincubated for 24 hrs followed by testosterone addition measured after 24 hrs by magnetic particle-based ELISA; assay type: functional, cell-based; conditions: Homo sapiens, HEK293-A

SMILES	fold change (FC) [1]	Activity [2]	EC50 [3] [µM]
c1ccc(-c2cc3ccccc3o2)cc1	>0.6	Non-Toxic	15.5
COc1cccc2cc(-c3ccccc3)oc12		Non-Toxic	
COc1ccc(-c2cc3cccc(OC)c3o2)cc1OC		Non-Toxic	
COc1ccc(-c2cc3ccccc3o2)cc1		Non-Toxic	
COc1ccc(-c2cc3cc(Cl)ccc3o2)cc1		Non-Toxic	
COc1cc(Cl)cc2cc(-c3ccc(F)cc3)oc12	>0.6	Non-Toxic	20.1
COc1cc(Cl)cc2cc(-c3ccc(Cl)cc3)oc12		Non-Toxic	
COc1cccc2cc(-c3ccc([N+](=O)[O-])cc3)oc12		Non-Toxic	
COc1ccc(-c2cc3cc(Br)cc(OC)c3o2)cc1	>0.6	Non-Toxic	20.9
COc1cc(Cl)cc2cc(-c3ccccc3)oc12		Non-Toxic	
COc1cc(-c2cc3cc(Cl)ccc3o2)cc(OC)c1OC	>0.6	Non-Toxic	29.4
COc1ccc(-c2cc3cc(Br)cc(OC)c3o2)cc1OC		Non-Toxic	
O=[N+]([O-])c1ccc(-c2cc3cc(Cl)cc(Cl)c3o2)cc1		Non-Toxic	
COc1cc(CCCOC(C)=O)c(C=O)c2cc(-c3ccc4c(c3)OCO4)oc12		Non-Toxic	
COc1cccc2cc(-c3ccc4c(c3)OCO4)oc12	>0.6	Non-Toxic	
Clc1ccc2oc(-c3ccc(OCc4ccccc4)cc3)cc2c1	>0.6	Non-Toxic	17.2
COc1ccc(-c2cc3cc(Cl)ccc3o2)cc1OC		Non-Toxic	
COc1ccccc1-c1cc2cc(Cl)ccc2o1		Non-Toxic	
COc1cc(SC)cc2cc(-c3ccc(Cl)cc3)oc12		Non-Toxic	
COc1cc(CCCO)c(Br)c2c(Br)c(-c3ccc4c(c3)OCO4)oc12		Non-Toxic	
COc1ccc(-c2cc3cc(Br)cc(OC)c3o2)cc1O	>0.6	Non-Toxic	25.5
Clc1ccc(-c2cc3cc(Cl)ccc3o2)cc1		Non-Toxic	
COc1cccc(-c2cc3cc(Br)cc(OC)c3o2)c1	>0.6	Non-Toxic	
Fc1ccc(-c2cc3ccccc3o2)cc1	>0.6	Non-Toxic	24.9
COc1cccc2cc(-c3ccc(Cl)cc3)oc12	>0.6	Non-Toxic	14.7
COc1ccc(-c2cc3cccc(OC)c3o2)cc1		Non-Toxic	
COc1ccc(-c2cc3ccccc3o2)cc1OC		Non-Toxic	
COc1ccc(OC)c(-c2cc3cc(SC)cc(OC)c3o2)c1	>0.6	Non-Toxic	19.4

SMILES	fold change (FC) [1]	Activity [2]	EC50 [3] [µM]
COc1ccc(-c2cc3cc(Cl)cc(Cl)c3o2)cc1OC		Non-Toxic	
COc1cccc(-c2cc3ccccc3o2)c1	>0.6	Non-Toxic	20.8
Clc1cc(Cl)c2oc(-c3ccccc3)cc2c1		Non-Toxic	
COc1cccc(-c2cc3cc(Cl)cc(Cl)c3o2)c1	>0.6	Non-Toxic	19.6
COc1cc(CCCO)c(Br)c2cc(-c3ccc4c(c3)OCO4)oc12	>0.6	Non-Toxic	22.1
O=[N+]([O-])c1ccc(-c2cc3cc(Cl)ccc3o2)cc1		Non-Toxic	
COc1cc(-c2cc3cc(Br)cc(OC)c3o2)ccc1O		Non-Toxic	
COc1ccccc1-c1cc2cc(Cl)cc(Cl)c2o1		Non-Toxic	
COc1cccc(-c2cc3cccc(OC)c3o2)c1		Non-Toxic	
COc1cc(SC)cc2cc(-c3ccc(F)cc3)oc12		Non-Toxic	
COc1cc(Br)cc2cc(-c3ccc([N+](=O)[O-])cc3)oc12	>0.6	Non-Toxic	30.9
COc1cc(CCCOC(C)=O)cc2c(C=O)c(-c3ccc4c(c3)OCO4)oc12		Non-Toxic	
COc1cc(Br)cc2cc(-c3ccc4c(c3)OCO4)oc12		Non-Toxic	
COc1c(Br)c(CCCO)c(Br)c2c(Br)c(-c3ccc4c(c3)OCO4)oc12		Non-Toxic	
COc1ccc(-c2cc3cc(Cl)cc(Cl)c3o2)cc1		Non-Toxic	
c1ccc2oc(-c3ccc4c(c3)OCO4)cc2c1		Non-Toxic	
COc1cc(CCCO[C@@H]2O[C@H](CO[C@@H]3O[C@H](CO)[C@@H](O)[C@H](O)[C@H]3O)[C@@H](O)[C@H](O)[C@H]2O)cc2cc(-c3ccc4c(c3)OCO4)oc12			15.7
COc1cccc2cc(-c3ccc(F)cc3)oc12		Non-Toxic	
C=CC(=O)OCCCc1cc(OC)c2oc(-c3ccc4c(c3)OCO4)cc2c1		Non-Toxic	
COc1cc(CCCI)cc2cc(-c3ccc4c(c3)OCO4)oc12		Non-Toxic	
COc1cc(CCC=O)cc2cc(-c3ccc4c(c3)OCO4)oc12		Non-Toxic	
COc1cc(CCCBr)cc2cc(-c3ccc4c(c3)OCO4)oc12		Non-Toxic	
COc1cc(CCCOC(=O)c2ccccc2)cc2cc(-c3ccc4c(c3)OCO4)oc12	>0.6	Non-Toxic	
COc1cc(CCCCl)cc2cc(-c3ccc4c(c3)OCO4)oc12	>0.6	Non-Toxic	
COc1cc(CCCOC(C)=O)cc2cc(-c3ccc4c(c3)OCO4)oc12 [EGONOL ACETATE]		Non-Toxic	
CCCC(=O)OCCCc1cc(OC)c2oc(-c3ccc4c(c3)OCO4)cc2c1 [EGONOLBUTANOATE]		Non-Toxic	
COc1cc(CCCO)cc2cc(-c3ccc4c(c3)OCO4)oc12 [EGONOL]		Non-Toxic	
